{
  "source": "patent US10035806B2",
  "about": "“Derivatized corroles and metallocorroles and their use as imaging and therapeutic agents” (CALIFORNIA INSTITUTE OF TECHNOLOGY, priority 2015, dated 2018)",
  "assay_in_all_cases": "NCI60 anticancer drug screen",
  "assay_type_in_all_cases": "cell-based, human",
  "key": {"TK-10": {"test_system": "TK-10", "conditions": "TK-10 (Renal Cancer), 10 μM, 48 h", "excerpt": "(§1) The aminocaproate-substituted corrole Complex 3 was submitted to NCI for cytotoxic screening at a single high dose (10−5M) in a panel of 60 human tumor cell lines (NCI60). Details of the cytotoxicity assessment in the NCI anticancer drug screen have been described previously, in Monks A, et al. (1991) Feasibility of a high-flux anticancer drug screen using a diverse panel of cultured human tumor cell lines. J Natl Cancer Inst 83(11):757-766, this reference being incorporated by reference for these teachings.\n(§2) In view of the promising results observed for carboxylated corroles, Complex 3 was selected for expanded cell screening to uncover additional susceptible cancer cell lines. The cytotoxic activity of Complex 3 was tested at a dose of 10^−5 M against 60 human cancer cell lines representing nine distinct tumor types in the anticancer screening program of the National Cancer Institute (NCI). The in vitro parameters for cytotoxicity, growth percent, and lethality were obtained for Complex 3 and reported as a mean graph of the percent growth of treated cells (FIG. 7). Bars in the mean graph depict the deviation of individual tumor cell lines from the overall mean value for all cells tested. Bars that project to the right of the mean represent cell lines that are more sensitive to Complex 3, whereas cell lines less sensitive to the compound display bars that project to the left.\n(§3) The numerical values associated with this assay represent growth relative to the no-drug control and the numbers of cells at time 0 (FIG. 7). This allows detection of both growth inhibition (values between 0 and 100) and lethality (values less than 0). For example, a value of 100 signifies no growth inhibition, 40 means 60% growth inhibition, 0 means no net growth over the course of the experiment, −40 means 40% lethality, and −100 indicates all cells are dead. […] Growth inhibitions reflect cytostatic activity of the compound as previously shown for Complex 2. In contrast, cell lethality is only evident in melanoma cells, specifically the LOX IMVI and SK-MEL-28 cell lines."}, "OVCAR-5": {"test_system": "OVCAR-5", "conditions": "OVCAR-5 (Ovarian Cancer), 10 μM, 48 h", "excerpt": "as §1, §2, §3"}, "K-562": {"test_system": "K-562", "conditions": "K-562 (Leukemia), 10 μM, 48 h", "excerpt": "as §1, §2, §3"}, "SK-MEL-5": {"test_system": "SK-MEL-5", "conditions": "SK-MEL-5 (Melanoma), 10 μM, 48 h", "excerpt": "as §1, §2, §3"}, "A549/ATCC": {"test_system": "A549/ATCC", "conditions": "A549/ATCC (Non-small-cell lung cancer), 10 μM, 48 h", "excerpt": "as §1, §2, §3"}, "HT29": {"test_system": "HT29", "conditions": "HT29 (Colon cancer), 10 μM, 48 h", "excerpt": "as §1, §2, §3"}, "NCI-H23": {"test_system": "NCI-H23", "conditions": "NCI-H23 (Non-small-cell lung cancer), 10 μM, 48 h", "excerpt": "as §1, §2, §3"}, "SN12C": {"test_system": "SN12C", "conditions": "SN12C (Renal Cancer), 10 μM, 48 h", "excerpt": "as §1, §2, §3"}, "A498": {"test_system": "A498", "conditions": "A498 (Renal Cancer), 10 μM, 48 h", "excerpt": "as §1, §2, §3"}, "PC-3": {"test_system": "PC-3", "conditions": "PC-3 (Prostate Cancer), 10 μM, 48 h", "excerpt": "as §1, §2, §3"}, "SF-295": {"test_system": "SF-295", "conditions": "SF-295 (CNS Cancer), 10 μM, 48 h", "excerpt": "as §1, §2, §3"}, "ACHN": {"test_system": "ACHN", "conditions": "ACHN (Renal Cancer), 10 μM, 48 h", "excerpt": "as §1, §2, §3"}, "HOP-62": {"test_system": "HOP-62", "conditions": "HOP-62 (Non-small-cell lung cancer), 10 μM, 48 h", "excerpt": "as §1, §2, §3"}, "NCI-H522": {"test_system": "NCI-H522", "conditions": "NCI-H522 (Non-small-cell lung cancer), 10 μM, 48 h", "excerpt": "as §1, §2, §3"}, "HS 578T": {"test_system": "HS 578T", "conditions": "HS 578T (Breast Cancer), 10 μM, 48 h", "excerpt": "as §1, §2, §3"}, "HCT-15": {"test_system": "HCT-15", "conditions": "HCT-15 (Colon cancer), 10 μM, 48 h", "excerpt": "as §1, §2, §3"}, "MCF7": {"test_system": "MCF7", "conditions": "MCF7 (Breast Cancer), 10 μM, 48 h", "excerpt": "as §1, §2, §3"}, "U251": {"test_system": "U251", "conditions": "U251 (CNS Cancer), 10 μM, 48 h", "excerpt": "as §1, §2, §3"}, "NCI-H226": {"test_system": "NCI-H226", "conditions": "NCI-H226 (Non-small-cell lung cancer), 10 μM, 48 h", "excerpt": "as §1, §2, §3"}, "SK-OV-3": {"test_system": "SK-OV-3", "conditions": "SK-OV-3 (Ovarian Cancer), 10 μM, 48 h", "excerpt": "as §1, §2, §3"}, "SF-539": {"test_system": "SF-539", "conditions": "SF-539 (CNS Cancer), 10 μM, 48 h", "excerpt": "as §1, §2, §3"}, "DU-145": {"test_system": "DU-145", "conditions": "DU-145 (Prostate Cancer), 10 μM, 48 h", "excerpt": "as §1, §2, §3"}, "MDA-MB-231/ATCC": {"test_system": "MDA-MB-231/ATCC", "conditions": "MDA-MB-231/ATCC (Breast Cancer), 10 μM, 48 h", "excerpt": "as §1, §2, §3"}, "MDA-MB-435": {"test_system": "MDA-MB-435", "conditions": "MDA-MB-435 (Melanoma), 10 μM, 48 h", "excerpt": "as §1, §2, §3"}, "RXF 398": {"test_system": "RXF 398", "conditions": "RXF 398 (Renal Cancer), 10 μM, 48 h", "excerpt": "as §1, §2, §3"}, "SW-620": {"test_system": "SW-620", "conditions": "SW-620 (Colon cancer), 10 μM, 48 h", "excerpt": "as §1, §2, §3"}, "UACC-62": {"test_system": "UACC-62", "conditions": "UACC-62 (Melanoma), 10 μM, 48 h", "excerpt": "as §1, §2, §3"}, "MOLT-4": {"test_system": "MOLT-4", "conditions": "MOLT-4 (Leukemia), 10 μM, 48 h", "excerpt": "as §1, §2, §3"}},
  "data": [
    {"smiles": "O=C(O)CCCCCNc1c(F)c(F)c(C2=C3C=CC4=[N+]3[Ga-]35[n]6c2ccc6C(c2c(F)c(F)c(F)c(F)c2F)=c2ccc([n]23)=C(c2c(F)c(F)c(F)c(F)c2F)c2ccc4[n]25)c(F)c1F", "note": "(stereo not shown) [Complex 3]", "values": [
      {"measurement": "Growth inhibition, %", "setting": "TK-10", "value": 47.3, "unit": "%"},
      {"measurement": "Growth inhibition, %", "setting": "OVCAR-5", "value": 53.1, "unit": "%"},
      {"measurement": "Growth inhibition, %", "setting": "K-562", "value": 72.9, "unit": "%"},
      {"measurement": "Growth inhibition, %", "setting": "SK-MEL-5", "value": 72.0, "unit": "%"},
      {"measurement": "Growth inhibition, %", "setting": "A549/ATCC", "value": 82.7, "unit": "%"},
      {"measurement": "Growth inhibition, %", "setting": "HT29", "value": 60.6, "unit": "%"},
      {"measurement": "Growth inhibition, %", "setting": "NCI-H23", "value": 64.5, "unit": "%"},
      {"measurement": "Growth inhibition, %", "setting": "SN12C", "value": 78.8, "unit": "%"},
      {"measurement": "Growth inhibition, %", "setting": "A498", "value": 99.0, "unit": "%"},
      {"measurement": "Growth inhibition, %", "setting": "PC-3", "value": 71.9, "unit": "%"},
      {"measurement": "Growth inhibition, %", "setting": "SF-295", "value": 53.2, "unit": "%"},
      {"measurement": "Growth inhibition, %", "setting": "ACHN", "value": 73.2, "unit": "%"},
      {"measurement": "Growth inhibition, %", "setting": "HOP-62", "value": 44.9, "unit": "%"},
      {"measurement": "Growth inhibition, %", "setting": "NCI-H522", "value": 44.6, "unit": "%"},
      {"measurement": "Growth inhibition, %", "setting": "HS 578T", "value": 81.2, "unit": "%"},
      {"measurement": "Growth inhibition, %", "setting": "HCT-15", "value": 57.0, "unit": "%"},
      {"measurement": "Growth inhibition, %", "setting": "MCF7", "value": 63.1, "unit": "%"},
      {"measurement": "Growth inhibition, %", "setting": "U251", "value": 77.4, "unit": "%"},
      {"measurement": "Growth inhibition, %", "setting": "NCI-H226", "value": 61.1, "unit": "%"},
      {"measurement": "Growth inhibition, %", "setting": "SK-OV-3", "value": 32.9, "unit": "%"},
      {"measurement": "Growth inhibition, %", "setting": "SF-539", "value": 85.3, "unit": "%"},
      {"measurement": "Growth inhibition, %", "setting": "DU-145", "value": 64.7, "unit": "%"},
      {"measurement": "Growth inhibition, %", "setting": "MDA-MB-231/ATCC", "value": 72.5, "unit": "%"},
      {"measurement": "Growth inhibition, %", "setting": "MDA-MB-435", "value": 90.8, "unit": "%"},
      {"measurement": "Growth inhibition, %", "setting": "RXF 398", "value": 96.7, "unit": "%"},
      {"measurement": "Growth inhibition, %", "setting": "SW-620", "value": 75.9, "unit": "%"},
      {"measurement": "Growth inhibition, %", "setting": "UACC-62", "value": 91.6, "unit": "%"},
      {"measurement": "Growth inhibition, %", "setting": "MOLT-4", "value": 86.0, "unit": "%"}
    ]}
  ]
}
